Test results: article PMC6572135, “N-Methyl-D-glucamine–Calix[4]resorcinarene Conjugates: Self-Assembly and Biological Properties” (Molecules, 2019)

Experiments:
C.albicans 855–653 = experiment: Fungicidal activity (MFC); assay type: cell-based; conditions: Candida albicans; C.albicans 855–653, fungicidal activity; read-out: Minimal Fungicidal Concentration (MFC)
Procedure: In vitro bacteriostatic and fungistatic activities of the macrocycles were evaluated against pathogenic representatives of Gram-positive bacteria (Staphylococcus aureus 209p, Bacillus cereus 8035), Gram-negative bacteria (Pseudomonas aeruginosa 9027, Escherichia coli F-50), and yeast (Trichophyton mentagrophytes var. gypseum 1773, Aspergillus niger BKMF-1119, Candida albicans 885–653). Minimal inhibitory concentrations (MICs) were estimated by conventional dilution methods for bacteria and fungi. The antibacterial and antifungal assays were performed in Hottinger broth (HiMe-dia Laboratories Pvt. Ltd. Mumbai, India) and Sabouraud dextrose broth (HiMedia Laboratories Pvt. Ltd.) (bacteria 3 × 10^5 cfu/mL and yeast 2 × 10^4 cfu/mL). The bactericidal and fungicidal activities were determined as described earlier. The tests were repeated three times.

[1] = Transmission electron microscopy of aggregates; assay type: physicochemical; conditions: aqueous solution mixture of GCR-2 with two-fold excess of MG
Procedure: In a mixed 1 mM GCR-2–2 mM MG system particles with a hydrodynamic diameter of 2 nm were formed, which correlates well with the size of single macrocycle molecules. In a 15 mM GCR-2–30 mM MG mixed system particles with 3.8 nm diameter were formed. Such a size approximately corresponds to double the length of a GCR-2 molecule. This indicates of formation of spherical micelles by virtue of lateral packaging of aromatic walls by head-to-head contact due to π–stacking and hydrogen bonds between neighboring GCR-2 molecules as depicted in Figure 6b. Such an aggregation mode is similar to the self-assembly behavior described for other calixarenes. The zeta-potential of obtained particles is −17.4 mV which is attributable primarily to hydroxylic groups. The formation of little spherical particles was further affirmed by TEM images (Figure 5b). In comparison with the nanostructure of GCR-1 aggregates, smaller nanostructures with a diameter of ca. 5 ± 2 nm were formed in the aqueous solution mixture of GCR-2, which was in good accordance with the DLS measurements.
TEM images were recorded on a HT7700 TEM instrument (Hitachi, Tokyo, Japan) operated at 110 kV accelerating voltage. The samples with 20 mM solutions were ultrasonicated in water for 10 min and then dispersed on 300 mesh carbon-coated copper grid.

[2] = Conductometry, critical aggregation concentration; assay type: physicochemical; conditions: water solution, 25 °C; GCR-2 in the presence of two-fold excess of MG
Procedure: Firstly, self-assembly of GCR-1 was studied by conductometric measurements (Figure 1). Specific conductivity increases proportionately with the GCR-1 concentration in water solution. Inflection on the plot appears at 14 mM, and after this critical aggregation concentration (CAC) the increment rate of conductivity reduces because the aggregates transfer charge less efficiently than monomers. Remarkably, modification of calix[4]resorcinarene by N-methyl-D-glucamine fragment facilitates self-aggregation of macrocycle in water medium (Figure 1). The CAC value for calix[4]resorcinarene (CR-1) without meglumine units at the upper rim is 20 mM that is greater than that for meglumine-modified calix[4]resorcinarene. The driving forces of intermolecular aggregates’ formation are probably hydrogen bonds between hydroxyl groups on the GCR-1 upper rim, so the presence of additional OH-groups in the meglumine group reinforces this noncovalent interaction. A stable pH value, which can be observed over a wide range of concentrations, verifies that the N-methyl-D-glucamine fragment is an effective buffer component (Figure S4). […] As a result, the aggregation of this calix[4]resorcinarene was studied in water solutions at the presence of two-fold excess of N-methyl-D-glucamine (MG). […] Specific conductivity values were measured at least three times for each concentration. […]

Diameter of nanostructures by TEM [1]: ca. 5 ± 2 nm
CAC, conductometry [2]: 7.9 mM
melting point: > 350 °C
SMILES: CC1c2cc(c(O)c(CN(C)C[C@@H](O)[C@H](O)[C@@H](O)[C@@H](O)CO)c2O)C(C)c2cc(c(O)c(CN(C)C[C@@H](O)[C@H](O)[C@@H](O)[C@@H](O)CO)c2O)C(C)c2cc(c(O)c(CN(C)C[C@@H](O)[C@H](O)[C@@H](O)[C@@H](O)CO)c2O)C(C)c2cc1c(O)c(CN(C)C[C@@H](O)[C@H](O)[C@@H](O)[C@@H](O)CO)c2O (stereo partly drawn) [GCR-2, N-methyl-D-glucaminemethyl methylcalix[4]resorcinarene]
MFC (C.albicans 855–653): > 500 µM
